Experimental data: ChEMBL document CHEMBL1134718, “N-acyloxymethyl carbamate linked prodrugs of pseudomycins are novel antifungal agents” (2001)
Converted amounts (≈) assume the structure as drawn. Positions of bridges follow the written chain, without caps; N, C: chain ends. Non-standard residues stand in square brackets, D forms with d. Residues, ends and D or L forms follow the SMILES beside them. *: point of attachment. Tetradecanoyl(3R-OH) = CCCCCCCCCCC[C@@H](O)CC(=O)*; Asp(3S-OH) = N[C@H](C(=O)O)[C@H](O)C(=O)O; Thr(4-Cl) = N[C@H](C(=O)O)[C@H](O)CCl; aThr = C[C@H](O)[C@H](N)C(=O)O; dDab = NCC[C@@H](N)C(=O)O; Dab = NCC[C@H](N)C(=O)O; Dhb = C/C=C(\N)C(=O)O

Assays:
Mus musculus [1] = experiment: Effective dose against disseminated Candidiasis mouse model after intraperitoneal administration; Value ranges from 7.8-12.4; format: functional
Candida albicans = experiment: Minimum inhibitory concentration against Candida albicans.; format: functional
Cryptococcus neoformans = experiment: Minimum inhibitory concentration against Cryptococcus neoformans.
Aspergillus fumigatus = experiment: Minimum inhibitory concentration against Aspergillus fumigatus; format: functional
Mus musculus [2] = experiment: The compound was tested for antifungal activity in tail vein irritation model 7 days after a dose of 20 mg/kg administered intravenously at 0,24,48,72 h; Positive; format: functional, organism-based; set-up: dose 20 mg/kg
Mus musculus [3] = experiment: The compound was tested for antifungal activity in tail vein irritation model 7 days after a dose of 20 mg/kg administered intravenously at 0,24,48,72 h; Negative; format: functional, organism-based; set-up: dose 20 mg/kg
Mus musculus [4] = experiment: Effective dose against disseminated Candidiasis mouse model after intraperitoneal administration; Value represented as 6.4/14.1; format: functional
Mus musculus [5] = experiment: Effective dose against disseminated Candidiasis mouse model after intraperitoneal administration; Value ranges from 2.5-7.2; format: functional
Mus musculus [6] = experiment: Effective dose against disseminated Candidiasis mouse model after intraperitoneal administration; format: functional

Compound | MIC (Candida albicans) [µg/mL] | MIC (Cryptococcus neoformans) [µg/mL] | MIC (Aspergillus fumigatus) [µg/mL] | Toxicity (Mus musculus [2]) | Toxicity (Mus musculus [3]) | ED50 (Mus musculus [6]) [mg 4kg-1] | other results
C/C=C1/NC(=O)[C@H]([C@H](C)O)NC(=O)[C@H](CCN)NC(=O)[C@H](CCCCN)NC(=O)[C@H](CC(=O)O)NC(=O)[C@@H](CCN)NC(=O)[C@@H](NC(=O)C[C@H](O)CCCCCCCCCCCCC)COC(=O)[C@H]([C@H](O)CCl)NC(=O)[C@H]([C@H](O)C(=O)O)NC1=O [PSEUDOMYCIN C] | 0.312 (≈ 0.252 µM) | < 0.02 | 10 (≈ 8.09 µM) |  |  |  | ED50 (Mus musculus [1]): 7.8 mg 4kg-1
C/C=C1/NC(=O)[C@H]([C@H](C)O)NC(=O)[C@@H](CCN)NC(=O)[C@H](CCCCN)NC(=O)[C@H](CC(=O)O)NC(=O)[C@@H](CCN)NC(=O)[C@@H](NC(=O)C[C@H](O)CCCCCCCCCCCCC)COC(=O)[C@H]([C@H](O)CCl)NC(=O)[C@H]([C@H](O)C(=O)O)NC1=O |  |  |  | Positive |  |  | 
C/C=C1/NC(=O)[C@H]([C@H](C)O)NC(=O)[C@@H](CCNC(=O)OCOC(C)=O)NC(=O)[C@H](CCCCNC(=O)OCOC(C)=O)NC(=O)[C@H](CC(=O)O)NC(=O)[C@@H](CCNC(=O)OCOC(C)=O)NC(=O)[C@@H](NC(=O)C[C@H](O)CCCCCCCCCCC)COC(=O)[C@H]([C@H](O)CCl)NC(=O)[C@H]([C@H](O)C(=O)O)NC1=O |  |  |  | Positive |  |  | 
C/C=C1/NC(=O)[C@H]([C@H](C)O)NC(=O)[C@@H](CCNC(=O)OCOC(=O)C(C)(C)C)NC(=O)[C@H](CCCCNC(=O)OCOC(=O)C(C)(C)C)NC(=O)[C@H](CC(=O)O)NC(=O)[C@@H](CCNC(=O)OCOC(=O)C(C)(C)C)NC(=O)[C@@H](NC(=O)C[C@H](O)CCCCCCCCCCCCC)COC(=O)[C@H]([C@H](O)CCl)NC(=O)[C@H]([C@H](O)C(=O)O)NC1=O |  |  |  |  | Negative |  | 
C/C=C1/NC(=O)[C@H]([C@H](C)O)NC(=O)[C@H](CCNC(=O)OCOC(=O)C(C)(C)C)NC(=O)[C@H](CCCCNC(=O)OCOC(=O)C(C)(C)C)NC(=O)[C@H](CC(=O)O)NC(=O)[C@@H](CCNC(=O)OCOC(=O)C(C)(C)C)NC(=O)[C@@H](NC(=O)C[C@H](O)CCCCCCCCCCC)COC(=O)[C@H]([C@H](O)CCl)NC(=O)[C@H]([C@H](O)C(=O)O)NC1=O | > 20 | > 20 | > 20 |  |  |  | ED50 (Mus musculus [4]): 6.4 mg 4kg-1
C/C=C1\NC(=O)[C@H]([C@H](C)O)NC(=O)[C@H](CCN)NC(=O)[C@H](CCCCN)NC(=O)[C@H](CC(=O)O)NC(=O)[C@@H](CCN)NC(=O)[C@@H](NC(=O)C[C@H](O)CCCCCCCCCCC)COC(=O)[C@H]([C@H](O)CCl)NC(=O)[C@H]([C@H](O)C(=O)O)NC1=O [PSEUDOMYCIN B] ({Tetradecanoyl(3R-OH)}-S[dDab]DK[Dab][aThr][Dhb][Asp(3S-OH)][Thr(4-Cl)]; ester 1-C) | 0.625 (≈ 0.517 µM) | 0.039 (≈ 0.0323 µM) | 20 (≈ 16.6 µM) | Positive |  |  | ED50 (Mus musculus [5]): 2.5 mg 4kg-1
C/C=C1/NC(=O)[C@H]([C@H](C)O)NC(=O)[C@H](CCNC(=O)OCOC(=O)C(C)(C)C)NC(=O)[C@H](CCCCNC(=O)OCOC(=O)C(C)(C)C)NC(=O)[C@H](CC(=O)O)NC(=O)[C@@H](CCNC(=O)OCOC(=O)C(C)(C)C)NC(=O)[C@@H](NC(=O)C[C@H](O)CCCCCCCCCCCCC)COC(=O)[C@H]([C@H](O)CCl)NC(=O)[C@H]([C@H](O)C(=O)O)NC1=O | > 20 | > 20 | > 20 |  |  | 9 | 
C/C=C1/NC(=O)[C@H]([C@H](C)O)NC(=O)[C@H](CCNC(=O)OCOC(C)=O)NC(=O)[C@H](CCCCNC(=O)OCOC(C)=O)NC(=O)[C@H](CC(=O)O)NC(=O)[C@@H](CCNC(=O)OCOC(C)=O)NC(=O)[C@@H](NC(=O)C[C@H](O)CCCCCCCCCCC)COC(=O)[C@H]([C@H](O)CCl)NC(=O)[C@H]([C@H](O)C(=O)O)NC1=O |  |  |  |  |  | 13 | 
C/C=C1/NC(=O)[C@H]([C@H](C)O)NC(=O)[C@@H](CCNC(=O)OC(C)OC(C)=O)NC(=O)[C@H](CCCCNC(=O)OC(C)OC(C)=O)NC(=O)[C@H](CC(=O)O)NC(=O)[C@@H](CCNC(=O)OC(C)OC(C)=O)NC(=O)[C@@H](NC(=O)C[C@H](O)CCCCCCCCCCC)COC(=O)[C@H]([C@H](O)CCl)NC(=O)[C@H]([C@H](O)C(=O)O)NC1=O (some centres undefined) |  |  |  |  | Negative | >20 | 
C/C=C1/NC(=O)[C@H]([C@H](C)O)NC(=O)[C@@H](CCNC(=O)OCOC(=O)C(C)(C)C)NC(=O)[C@H](CCCCNC(=O)OCOC(=O)C(C)(C)C)NC(=O)[C@H](CC(=O)O)NC(=O)[C@@H](CCNC(=O)OCOC(=O)C(C)(C)C)NC(=O)[C@@H](NC(=O)C[C@H](O)CCCCCCCCCCC)COC(=O)[C@H]([C@H](O)CCl)NC(=O)[C@H]([C@H](O)C(=O)O)NC1=O |  |  |  |  | Negative |  | 
